Patent publication US9624209B2, “Substituted phenylureas and phenylamides as vanilloid receptor ligands” (Gruenenthal GmbH, priority 2009, dated 2017)

Target: T1, vanilloid receptor 1 (VR1/TRPV1 receptor) (Homo sapiens, UniProt Q8NER1)
T1 construct: expressed in transfected cells; host or cells: CHO K1 cells (ECACC), stably transfected
Assay: VR1/TRPV1 receptor affinity, capsaicin stimulus (human)
Assay type: cell-based, human being
Details: @ 5 μM, Tables 8-12, read-out: (f) Ki (human being) [nM] Cap: inhibition (as a percentage)

T1 sequence (Q8NER1 whole entry): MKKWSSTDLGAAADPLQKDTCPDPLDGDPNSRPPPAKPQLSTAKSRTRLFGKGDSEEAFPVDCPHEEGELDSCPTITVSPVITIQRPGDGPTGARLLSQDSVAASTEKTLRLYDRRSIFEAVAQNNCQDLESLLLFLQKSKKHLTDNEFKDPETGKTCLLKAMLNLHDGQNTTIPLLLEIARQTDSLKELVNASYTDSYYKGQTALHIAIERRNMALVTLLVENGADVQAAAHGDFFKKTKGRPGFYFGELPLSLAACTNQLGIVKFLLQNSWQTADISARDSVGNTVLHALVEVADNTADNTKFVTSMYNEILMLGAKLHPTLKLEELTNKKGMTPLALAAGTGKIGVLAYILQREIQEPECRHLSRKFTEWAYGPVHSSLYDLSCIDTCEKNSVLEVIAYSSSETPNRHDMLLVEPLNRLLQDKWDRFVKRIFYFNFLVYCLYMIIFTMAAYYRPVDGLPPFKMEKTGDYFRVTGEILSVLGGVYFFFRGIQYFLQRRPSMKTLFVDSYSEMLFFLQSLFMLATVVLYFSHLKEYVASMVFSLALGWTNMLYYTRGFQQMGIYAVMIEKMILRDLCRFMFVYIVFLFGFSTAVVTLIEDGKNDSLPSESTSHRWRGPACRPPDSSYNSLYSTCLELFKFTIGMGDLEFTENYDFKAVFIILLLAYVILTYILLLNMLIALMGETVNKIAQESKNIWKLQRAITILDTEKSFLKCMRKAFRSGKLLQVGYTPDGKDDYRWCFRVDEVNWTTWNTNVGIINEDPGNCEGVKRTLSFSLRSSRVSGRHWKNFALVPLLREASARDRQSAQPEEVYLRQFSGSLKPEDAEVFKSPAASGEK

Row | inhibition at 5 µM | Compound
1 | 55% | CC(C(=O)NCc1cc(C(F)(F)F)nn1-c1cccc(F)c1)c1ccc(S(C)(=O)=O)c(F)c1 (stereo not drawn) [Example D3, 2-(3-Fluoro-4-methylsulfonyl-phenyl)-N-[[2-(3-fluorophenyl)-5-(trifluoromethyl)-2H-pyrazol-3-yl]-methyl]-propionamide]
2 | 38% | CC(C)(C)c1cc(CNC(=O)Nc2ccc(C(=O)N3CCOCC3)c(F)c2)n(-c2cccc(Cl)c2)n1 [Example E14, 1-[[5-tert-Butyl-2-(3-chlorophenyl)-2H-pyrazol-3-yl]-methyl]-3-[3-fluoro-4-(morpholine-4-carbonyl)-phenyl]-urea]

More lines, now with the values behind:

Row | Compound | inhibition at 5 µM
3 | CC(C(=O)NCc1cc(C(F)(F)F)nn1-c1cccc(Cl)c1)c1ccc(C(=O)N2CCOCC2)c(F)c1 (stereo not drawn) [Example E16, N-[[2-(3-Chlorophenyl)-5-(trifluoromethyl)-2H-pyrazol-3-yl]-methyl]-2-[3-fluoro-4-(morpholine-4-carbonyl)-phenyl]-propionamide] | 32%
4 | CC(C(=O)NCc1cc(C(C)(C)C)nn1-c1cccc(Cl)c1)c1ccc(C(=O)N2CCOCC2)c(F)c1 (stereo not drawn) [Example E17, N-[[5-tert-Butyl-2-(3-chlorophenyl)-2H-pyrazol-3-yl]-methyl]-2-[3-fluoro-4-(morpholine-4-carbonyl)-phenyl]-propionamide] | 42%
5 | CN(C(=O)Nc1ccc(C(=O)NC2CCOCC2)c(F)c1)c1cc(C(F)(F)F)nn1-c1cccc(Cl)c1 [Example E22, 4-[[[2-(3-Chlorophenyl)-5-(trifluoromethyl)-2H-pyrazol-3-yl]-methyl-carbamoyl]amino]-2-fluoro-N-tetrahydro-pyran-4-yl-benzamide] | 49%
6 | CC(C(=O)N(C)c1cc(C(F)(F)F)nn1-c1cccc(Cl)c1)c1ccc(C(=O)NC2CCOCC2)c(F)c1 (stereo not drawn) [Example E23, 4-[1-[[2-(3-Chlorophenyl)-5-(trifluoromethyl)-2H-pyrazol-3-yl]-methyl-carbamoyl]-ethyl]-2-fluoro-N-tetrahydro-pyran-4-yl-benzamide] | 24.8%
7 | COc1cc(NC(=O)N(C)c2cc(C(C)(C)C)nn2-c2cccc(Cl)c2)ccc1C(=O)O [Example E56, 4-[[[5-tert-Butyl-2-(3-chlorophenyl)-2H-pyrazol-3-yl]-methyl-carbamoyl]amino]-2-methoxy-benzoic acid] | 52%

Same assay, conditions: Tables 8-12, read-out: (f) Ki (human being) [nM] Cap

Row | Ki | Compound
8 | 38 nM | CC(C(=O)NCc1cc(C(F)(F)F)nn1-c1cccc(Cl)c1)c1ccc(CS(C)(=O)=O)c(F)c1 (stereo not drawn) [Example D6, N-[[2-(3-Chlorophenyl)-5-(trifluoromethyl)-2H-pyrazol-3-yl]-methyl]-2-[3-fluoro-4-(methylsulfonyl-methyl)-phenyl]-propionamide]
9 | 27 nM | CC(C(=O)NCc1cc(C(C)(C)C)nn1-c1cccc(Cl)c1)c1ccc(CS(C)(=O)=O)c(F)c1 (stereo not drawn) [Example D7, N-[[5-tert-Butyl-2-(3-chlorophenyl)-2H-pyrazol-3-yl]-methyl]-2-[3-fluoro-4-(methylsulfonyl-methyl)-phenyl]-propionamide]
10 | 48 nM | CC(C(=O)NCc1cc(C(C)(C)C)nn1-c1ccc(F)c(Cl)c1)c1ccc(CS(C)(=O)=O)c(F)c1 (stereo not drawn) [Example D8, N-[[5-tert-Butyl-2-(3-chloro-4-fluoro-phenyl)-2H-pyrazol-3-yl]-methyl]-2-[3-fluoro-4-(methylsulfonyl-methyl)-phenyl]-propionamide]
11 | 30 nM | CC(C(=O)NCc1cc(C(C)(C)C)nn1-c1cccc(F)c1)c1ccc(CS(C)(=O)=O)c(F)c1 (stereo not drawn) [Example D9, N-[[5-tert-Butyl-2-(3-fluorophenyl)-2H-pyrazol-3-yl]-methyl]-2-[3-fluoro-4-(methylsulfonyl-methyl)-phenyl]-propionamide]
12 | 75 nM | CC(C(=O)NCc1cc(C(F)(F)F)nn1-c1cccc(F)c1)c1ccc(CS(C)(=O)=O)c(F)c1 (stereo not drawn) [Example D10, 2-[3-Fluoro-4-(methylsulfonyl-methyl)-phenyl]-N-[[2-(3-fluorophenyl)-5-(trifluoromethyl)-2H-pyrazol-3-yl]-methyl]-propionamide]
13 | 42 nM | CS(=O)(=O)CCc1ccc(NC(=O)NCc2cc(C3CC3)nn2-c2cccc(Cl)c2)cc1F [Example D26, 1-[[2-(3-Chlorophenyl)-5-cyclopropyl-2H-pyrazol-3-yl]-methyl]-3-[3-fluoro-4-(2-methylsulfonyl-ethyl)-phenyl]-urea]
14 | 40 nM | CS(=O)(=O)CCc1ccc(NC(=O)NCc2cc(C(F)(F)F)nn2-c2cccc(Cl)c2)cc1F [Example D27, 1-[[2-(3-Chlorophenyl)-5-(trifluoromethyl)-2H-pyrazol-3-yl]-methyl]-3-[3-fluoro-4-(2-methylsulfonyl-ethyl)-phenyl]-urea]
15 | 32 nM | CS(=O)(=O)CCc1ccc(NC(=O)NCc2cc(C(F)(F)F)nn2-c2ccc(F)c(Cl)c2)cc1F [Example D28, 1-[[2-(3-Chloro-4-fluoro-phenyl)-5-(trifluoromethyl)-2H-pyrazol-3-yl]-methyl]-3-[3-fluoro-4-(2-methylsulfonyl-ethyl)-phenyl]-urea]
16 | 13 nM | CC(C)(C)c1cc(CNC(=O)Nc2ccc(CCS(C)(=O)=O)c(F)c2)n(-c2cccc(Cl)c2)n1 [Example D29, 1-[[5-tert-Butyl-2-(3-chlorophenyl)-2H-pyrazol-3-yl]-methyl]-3-[3-fluoro-4-(2-methylsulfonyl-ethyl)-phenyl]-urea]
17 | 15 nM | CC(C)(C)c1cc(CNC(=O)Nc2ccc(CCS(C)(=O)=O)c(F)c2)n(-c2cc(F)cc(F)c2)n1 [Example D31, 1-[[5-tert-Butyl-2-(3,5-difluoro-phenyl)-2H-pyrazol-3-yl]-methyl]-3-[3-fluoro-4-(2-methylsulfonyl-ethyl)-phenyl]-urea]
18 | 4 nM | CC(C)c1cccc(-n2nc(C(F)(F)F)cc2CNC(=O)Nc2ccc(CCS(C)(=O)=O)c(F)c2)c1 [Example D33, 1-[3-Fluoro-4-(2-methylsulfonyl-ethyl)-phenyl]-3-[[2-(3-isopropyl-phenyl)-5-(trifluoromethyl)-2H-pyrazol-3-yl]-methyl]-urea]
19 | 37 nM | O=C(NCc1cc(C(F)(F)F)nn1-c1cccc(Cl)c1)Nc1ccc(C(=O)NCCO)c(F)c1 [Example E18]
20 | 1 nM | CC(C(=O)NCc1cc(C(C)(C)C)nn1-c1cccc(Cl)c1)c1ccc(C(=O)Nc2ccc(F)cc2)c(F)c1 (stereo not drawn) [Example E44, 4-[1-[[5-tert-Butyl-2-(3-chlorophenyl)-2H-pyrazol-3-yl]-methyl-carbamoyl]-ethyl-]-2-fluoro-N-(4-fluorophenyl)-benzamide]
21 | 23 nM | O=Cc1ccc(NC(=O)NCc2cc(C(F)(F)F)nn2-c2cccc(Cl)c2)cc1F [Example E61, 1-((1-(3-chlorophenyl)-3-(trifluoromethyl)-1H-pyrazol-5-yl)methyl)-3-(3-fluoro-4-formylphenyl)urea]

Continued, compound first:

Row | Compound | Ki
22 | CC(C(=O)NCc1cc(C(F)(F)F)nn1-c1ccc(F)c(Cl)c1)c1ccc(S(C)(=O)=O)c(F)c1 (stereo not drawn) [Example D4, N-[[2-(3-Chloro-4-fluoro-phenyl)-5-(trifluoromethyl)-2H-pyrazol-3-yl]-methyl]-2-(3-fluoro-4-methylsulfonyl-phenyl)-propionamide] | 41 nM
23 | CC(C(=O)NCc1cc(C(F)(F)F)nn1-c1cccc(Cl)c1)c1ccc(S(C)(=O)=O)c(Cl)c1 (stereo not drawn) [Example D5, 2-(3-Chloro-4-methylsulfonyl-phenyl)-N-[[2-(3-chlorophenyl)-5-(trifluoromethyl)-2H-pyrazol-3-yl]-methyl]-propionamide] | 7 nM
24 | CCC(=O)c1ccc(C(C)C(=O)NCc2cc(C(F)(F)F)nn2-c2cccc(F)c2)cc1F (stereo not drawn) [Example E1, N-[[2-(3-Fluorophenyl)-5-(trifluoromethyl)-2H-pyrazol-3-yl]-methyl]-2-(3-fluoro-4-propanoyl-phenyl)-propionamide] | 24 nM
25 | CCC(=O)c1ccc(C(C)C(=O)NCc2cc(C(F)(F)F)nn2-c2cccc(OC)c2)cc1F (stereo not drawn) [Example E2, 2-(3-Fluoro-4-propanoyl-phenyl)-N-[[2-(3-methoxyphenyl)-5-(trifluoromethyl)-2H-pyrazol-3-yl]-methyl]-propionamide] | 35 nM
26 | CCC(=O)c1ccc(C(C)C(=O)NCc2cc(C(F)(F)F)nn2-c2ccc(F)c(F)c2)cc1F (stereo not drawn) [Example E3, N-[[2-(3,4-Difluoro-phenyl)-5-(trifluoromethyl)-2H-pyrazol-3-yl]-methyl]-2-(3-fluoro-4-propanoyl-phenyl)-propionamide] | 62 nM
27 | CC(C(=O)NCc1cc(C(F)(F)F)nn1-c1cccc(Cl)c1)c1ccc(C(N)=O)c(F)c1 (stereo not drawn) [Example E4, 4-[1-[[2-(3-Chlorphenyl)-5-(trifluormethyl)-2H-pyrazol-3-yl]-methyl-carbamoyl]-ethyl]-2-fluoro-benzamide] | 8 nM
28 | CC(C(=O)NCc1cc(C(F)(F)F)nn1-c1cccc(Cl)c1)c1ccc(C(=O)Nc2ccc(F)cc2)c(F)c1 (stereo not drawn) [Example E45, 4-[1-[[2-(3-Chlorophenyl)-5-(trifluoromethyl)-2H-pyrazol-3-yl]-methyl-carbamoyl]-ethyl]-2-fluoro-N-(4-fluorophenyl)-benzamide] | 0.3 nM
29 | N-(3-Chlorophenyl)-4-[1-[[2-(3-chlorophenyl)-5-(trifluoromethyl)-2H-pyrazol-3-yl]-methyl-carbamoyl]-ethyl]-benzamide [Example E32] | 48 nM
30 | N-(4-Chlorophenyl)-4-[1-[[2-(3-chlorophenyl)-5-(trifluoromethyl)-2H-pyrazol-3-yl]-methyl-carbamoyl]-ethyl]-2-fluoro-benzamide [Example E46] | 2 nM
31 | N-(4-Chlorophenyl)-4-[1-[[2-(3-chlorophenyl)-5-(trifluoromethyl)-2H-pyrazol-3-yl]-methyl-carbamoyl]-ethyl]-benzamide [Example E33] | 6 nM
32 | N-[[2-(3-Chlorophenyl)-5-cyclopropyl-2H-pyrazol-3-yl]-methyl]-2-[3-fluoro-4-(methanesulfonamido-methyl)-phenyl]-propionamide [Example B4] | 61 nM
33 | N-[[4-[[[5-tert-Butyl-2-(3-chlorophenyl)-2H-pyrazol-3-yl]-methyl-carbamoyl]amino]-2-fluoro-phenyl]-methyl]-acetamide [Example B34] | 15 nM
